Laboratory results published in patent US9133218B2, “Pesticidally active pyridyl- and pyrimidyl-substituted thiazole derivatives” (Syngenta Participations AG, priority 2012, dated 2015).
Like-named read-outs stand apart in the source and are kept apart here.

Legend:
Type in all cases: in vivo
[1] = tested on: Myzus persicae (Green Peach Aphid); assay: Activity against Myzus persicae (green peach aphid), sunflower leaf disc spray test; conditions: foliar, 144 h, read-out: activity (mortality) against Myzus persicae
Text: Activity Against Myzus persicae (Green Peach Aphid)

[2] = tested on: Aedes aegypti (Yellow Fever Mosquito); assay: whole plant or invertebrate; conditions: 200 ppm in ethanol, adult females, after 48 h and/or 24 h, read-out: control of Aedes aegypti (mortality)
Protocol: Aedes aegypti (Yellow Fever Mosquito)
(§1) Test solutions, at an application rate of 200 ppm in ethanol, were applied to 12 well tissue culture plates. Once the deposits were dry, five, two to five day old adult female Aedes aegypti were added to each well, and sustained with a 10% sucrose solution in a cotton wool plug. Mortality was assessed at 24 and 48 hours after introduction. The following compounds gave at least 80% control of Aedes aegypti after 48 h and/or 24 h: No. 1.026, 1.027, 1.030 and 1.025.

[3] = tested on: Bemisia tabaci (Cotton White Fly); assay: Activity against Bemisia tabaci (cotton white fly), cotton leaf disc spray test; conditions: foliar, 144 h, read-out: activity (mortality and special effects) against Bemisia tabaci
Protocol: Activity Against Bemisia tabaci (Cotton White Fly)
(§2) Cotton leaf discs were placed on agar in a 24-well microtiter plate and sprayed with test solutions. After drying, the leaf discs were infested with 12 to 18 adults. After an incubation period of 6 days after infestation, samples were checked for mortality and special effects (e.g. phytotoxicity).

[4] = tested on: Frankliniellaoccidentalis (Western Flower Thrips); assay: Activity against Frankliniella occidentalis (western flower thrips), sunflower leaf disc spray test; conditions: foliar, 168 h, mixed-age population, 7 days after treatment, read-out: activity (mortality and special effects) against Frankliniella occidentalis
Protocol: Activity Against Frankliniellaoccidentalis (Western Flower Thrips)
as §2, with “Sunflower” for “Cotton”, “are” for “were”, “a Frankliniella population of mixed ages.” for “12 to 18 adults.”, “7” for “6”, “treatment,” for “infestation,”

[5] = tested on: Heliothis virescens (Tobacco Budworm); assay: Activity against Heliothis virescens (tobacco budworm), eggs on artificial diet; conditions: eggs 0-24 h old, 4 days incubation, read-out: activity (egg mortality, larval mortality, growth regulation) against Heliothis virescens
Protocol: Activity Against Heliothis virescens (Tobacco Budworm)
Eggs (0-24 h old) are placed in 24-well microtiter plate on artificial diet and treated with test solutions by pipetting. After an incubation period of 4 days, samples are checked for egg mortality, larval mortality, and growth regulation.

[6] = tested on: Anopheles stephensi (Indian Malaria Mosquito); assay: Anopheles stephensi (Indian malaria mosquito) contact test on treated plates; conditions: 200 ppm in ethanol, adult females, after 48 h and/or 24 h, read-out: control of Anopheles stephensi (mortality)
Protocol: Anopheles stephensi (Indian Malaria Mosquito)
as §1, with “Anopheles stephensi” for “Aedes aegypti”, “1.026” for “1.026, 1.027, 1.030”, “1.030.” for “1.025.”

[7] = tested on: Tetranychusurticae (Two-Spotted Spider Mite); assay: whole plant or invertebrate; conditions: Tetranychus urticae, foliar, 192 h, read-out: activity (egg, larval and adult mortality) against Tetranychus urticae
Text: Activity Against Tetranychusurticae (Two-Spotted Spider Mite)
Bean leaf discs on agar in 24-well microtiter plates are sprayed with test solutions. After drying, the leaf discs are infested with mite populations of mixed ages. 8 days later, discs are checked for egg mortality, larval mortality, and adult mortality.

[8] = tested on: Spodoptera littoralis (Egyptian Cotton Leaf Worm); assay: Activity against Spodoptera littoralis (Egyptian cotton leaf worm), systemic lettuce test; conditions: 120 h, systemic via lettuce roots, 5 days after infestation, read-out: activity (mortality, repellent effect, feeding behavior, growth regulation) against Spodoptera littoralis
Text: Activity Against Spodoptera littoralis (Egyptian Cotton Leaf Worm)
Test compounds were applied by pipette into 24 well plates and mixed with agar. Lettuce seeds were placed on the agar and the multi well plate is closed by another plate which contains also agar. After 7 days the roots have absorbed the compound and the lettuce has grown into the lid plate. The lettuce leafs were now cut off into the lid plate. Spodoptera eggs were pipetted through a plastic stencil on a humid gel blotting paper and the plate closed with it. The samples are checked for mortality, repellent effect, feeding behavior, and growth regulation 5 days after infestation.

[9] = 200 ppm, mixed-age aphid population, 6 days incubation
[10] = 200 ppm, adults, 6 days after infestation

SMILES	mortality at 200 ppm [1, 9]	mortality at 200 ppm [3, 10]	other results
Cc1nc(-c2cccnc2)sc1-c1ccc2c(n1)/C(=N/O)CCC2 (single isomer, unassigned) [Compound 1.025, 2-[4-methyl-2-(3-pyridyl)thiazol-5-yl]-6,7-dihydro-5H-quinolin-8-one oxime]	> 80%	> 80%	mortality at 200 ppm [2]: ≥ 80%
CO/N=C1\CCCc2ccc(-c3cnc(-c4cccnc4)s3)nc21 [Compound 1.002]	> 80%	> 80%	mortality at 200 ppm [4]: > 80%; mortality at 200 ppm [5]: > 80%
CCO/N=C1\CCCc2ccc(-c3cnc(-c4cccnc4)s3)nc21 [Compound 1.003]	> 80%	> 80%	
CO/N=C1\CCCc2ccc(-c3sc(-c4cccnc4)nc3C)nc21 [Compound 1.026]	> 80%	> 80%	mortality at 200 ppm [2]: ≥ 80%; mortality at 200 ppm [6]: ≥ 80%
CCO/N=C1\CCCc2ccc(-c3sc(-c4cccnc4)nc3C)nc21 [Compound 1.027]	> 80%	> 80%	mortality at 200 ppm [2]: ≥ 80%
CCCO/N=C1\CCCc2ccc(-c3sc(-c4cccnc4)nc3C)nc21 [Compound 1.028]	> 80%	> 80%	mortality at 200 ppm [7]: > 80%
Cc1nc(-c2cccnc2)sc1-c1ccc2c(n1)/C(=N/OC(C)C)CCC2 [Compound 1.029]	> 80%	> 80%	
C=CCO/N=C1\CCCc2ccc(-c3sc(-c4cccnc4)nc3C)nc21 [Compound 1.030]	> 80%	> 80%	mortality at 200 ppm [2]: ≥ 80%; mortality at 200 ppm [6]: ≥ 80%
CO/N=C1\CCOc2ccc(-c3sc(-c4cccnc4)nc3C)nc21 [Compound 1.032, N-methoxy-6-[4-methyl-2-(3-pyridyl)thiazol-5-yl]-2,3-dihydropyrano[3,2-b]pyridin-4-imine]	> 80%	> 80%	
CCO/N=C1\CCOc2ccc(-c3sc(-c4cccnc4)nc3C)nc21 [Compound 1.033]	> 80%	> 80%	
Cc1nc(-c2cccnc2)sc1-c1ccc2c(n1)/C(=N/OC(C)C)CCO2 [Compound 1.035]	> 80%	> 80%	
C=CCO/N=C1\CCOc2ccc(-c3sc(-c4cccnc4)nc3C)nc21 [Compound 1.036]	> 80%	> 80%	
Cc1nc(-c2cccnc2)sc1-c1ccc2c(n1)/C(=N/OCCCc1ccccc1)CCC2 [Compound 1.049]	> 80%	> 80%	
Cc1nc(-c2cccnc2)sc1-c1ccc2c(n1)/C(=N/OCC(F)F)CCC2 [Compound 1.050]	> 80%		mortality at 12.5 ppm [8]: > 80%
Cc1nc(-c2cccnc2)sc1-c1ccc2c(n1)/C(=N/OCCCC1OCCO1)CCC2 [Compound 1.051]	> 80%		
Cc1nc(-c2cccnc2)sc1-c1ccc2c(n1)/C(=N/OCCc1ccc(F)cc1)CCC2 [Compound 1.053]	> 80%		mortality at 12.5 ppm [8]: > 80%
Cc1nc(-c2cccnc2)sc1-c1ccc2c(n1)/C(=N/OCCC1CCCN1C)CCC2 (stereo not drawn) [Compound 1.054]	> 80%		
Cc1nc(-c2cccnc2)sc1-c1ccc2c(n1)/C(=N/OCc1ccc(Cl)cc1)CCC2 [Compound 1.062]	> 80%		
Cc1nc(-c2cccnc2)sc1-c1ccc2c(n1)/C(=N/OCC#Cc1ccccc1)CCC2 [Compound 1.063]	> 80%		mortality at 200 ppm [7]: > 80%

SMILES	mortality at 200 ppm [1, 9]	mortality at 200 ppm [3, 10]	other results
Cc1nc(-c2cccnc2)sc1-c1ccc2c(n1)/C(=N/OCC1CCCCC1)CCC2 [Compound 1.064]	> 80%		
Cc1nc(-c2cccnc2)sc1-c1ccc2c(n1)/C(=N/OCCSc1ccc(F)cc1)CCC2 [Compound 1.065]			mortality at 200 ppm [5]: > 80%
Cc1nc(-c2cccnc2)sc1-c1ccc2c(n1)/C(=N/OCC1OCCO1)CCC2 [Compound 1.066]	> 80%		
Cc1nc(-c2cccnc2)sc1-c1ccc2c(n1)/C(=N/OCc1cc(C(F)(F)F)cc(C(F)(F)F)c1)CCC2 [Compound 1.067]			mortality at 12.5 ppm [8]: > 80%
Cc1nc(-c2cccnc2)sc1-c1ccc2c(n1)/C(=N/OCc1ccccc1)CCC2 [Compound 1.068]	> 80%		
CO/N=C1\CCSc2sc(-c3sc(-c4cccnc4)nc3C)nc21 [Compound 3.050, N-methoxy-2-[4-methyl-2-(3-pyridyl)thiazol-5-yl]-5,6-dihydrothiopyrano[3,2-d]thiazol-7-imine]	> 80%	> 80%	
CCO/N=C1\CCSc2sc(-c3sc(-c4cccnc4)nc3C)nc21 [Compound 3.051]	> 80%	> 80%	
C=CCO/N=C1\CCSc2sc(-c3sc(-c4cccnc4)nc3C)nc21 [Compound 3.053]	> 80%	> 80%	
CN/N=C1\CCCc2ccc(-c3sc(-c4cccnc4)nc3C)nc21 [Compound 6.009]	> 80%		
COC(=O)N/N=C1\CCCc2ccc(-c3sc(-c4cccnc4)nc3C)nc21 [Compound 6.011, Methyl N-[(E)-[2-[4-methyl-2-(3-pyridyl)thiazol-5-yl]-6,7-dihydro-5H-quinolin-8-ylidene]amino]carbamate]	> 80%	> 80%	
CN/N=C1\CCOc2ccc(-c3sc(-c4cccnc4)nc3C)nc21 [Compound 6.016]	> 80%		
COC(=O)N/N=C1\CCOc2ccc(-c3sc(-c4cccnc4)nc3C)nc21 [Compound 6.018]		> 80%	
COC(=O)N(C)/N=C1\CCOc2ccc(-c3sc(-c4cccnc4)nc3C)nc21 [Compound 6.019]			mortality at 200 ppm [1]: > 80%; mortality at 200 ppm [3]: > 80%
Cc1nc(-c2cccnc2)sc1-c1ccc2c(n1)/C(=N/N(C)S(C)(=O)=O)CCO2 [Compound 6.021]		> 80%	
Cc1nc(-c2cccnc2)sc1-c1ccc2c(n1)/C(=N/Nc1ccc(F)cc1)CCC2 [Compound 6.029]	> 80%		
Cc1nc(-c2cccnc2)sc1-c1ccc2c(n1)/C(=N/NCC(F)(F)F)CCC2 [Compound 6.032]	> 80%		
Cc1nc(-c2cccnc2)sc1-c1ccc2c(n1)/C(=N\NCC(F)(F)F)CCC2 [Compound 6.033]	> 80%		mortality at 200 ppm [5]: > 80%
COc1ccc(N/N=C2\CCCc3ccc(-c4sc(-c5cccnc5)nc4C)nc32)cc1 [Compound 6.034]	> 80%		
Cc1nc(-c2cccnc2)sc1-c1ccc2c(n1)/C(=N/NC(C)(C)C)CCC2 [Compound 6.035]	> 80%		
